The test deals with T1, Mcl-1/Bim interaction, recombinant human Mcl-1 (171-327) (Homo sapiens, UniProt Q07820).
T1 construct: made in house
In words: Cell free Mcl-1: Bim Affinity Assay (Mcl-1 HTRF). Format: binding. Conditions: cell free Mcl-1:Bim TR-FRET, recombinant human Mcl-1 (171-327). Here is the method:
Cell free Mcl-1: Bim Affinity Assay (Mcl-1 HTRF)
The inhibition of the Mcl-1/Bim interaction was measured using a time-resolved fluorescence resonance energy transfer (TR-FRET) assay. […] A biotinylated peptide derived from human Bim (residues 51-76) was purchased from CPC Scientific (San Jose, CA). The TR-FRET assay was conducted in a 384-well white OptiPlatem (PerkinElmer, Waltham, MA) in a total volume of 40 μL. […] The reaction plates were further incubated overnight and then were read on an Envision® multimode reader (PerkinElmer). […] The IC50 values of test compounds were determined from duplicate data by analyzing competition curves using a four-parameter sigmoidal model in GraphPad Prism (GraphPad Software, San Diego, CA) or in Genedata Screener® (Genedata, Basel, Switzerland).
(Time-resolved FRET reads energy transfer from a long-lived donor to a nearby acceptor.)

T1 sequence (Q07820 171-327): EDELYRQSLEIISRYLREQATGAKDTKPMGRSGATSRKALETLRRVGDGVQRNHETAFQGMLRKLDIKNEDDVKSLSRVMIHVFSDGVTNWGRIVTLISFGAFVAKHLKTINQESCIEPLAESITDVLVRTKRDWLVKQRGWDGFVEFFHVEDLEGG

As a reminder, the IC50 is the concentration needed to halve the response being measured. For the compound `O=C1NS(=O)(=O)C[C@@H](C2CC2)C/C=C/[C@H](O)[C@@H]2CC[C@H]2CN2C[C@@]3(CCCc4cc(Cl)ccc43)COc3ccc1cc32` (single isomer, unassigned) [Example 684], the IC50 is 11 nM.

For `CC[C@@H]1CCCC[C@H](O)[C@@H]2CC[C@H]2CN2C[C@@]3(CCc4cc(Cl)ccc43)COc3ccc(cc32)C(=O)NS1(=O)=O` (single isomer, unassigned) [Example 695, (1S,3′R,6′R,7′S,12′R)-5-chloro-12′-ethyl-7′-hydroxy-2,3-dihydro-15′H-spiro[indene-1,22′-[20]oxa[13]thia[1,14]diazatetracyclo[14.7.2.0^3,6.0^19,24]pentacosa [16,18,24]trien]-15′-one 13′,13′-dioxide or (1S,3′R,6′R,7′S,12′S)-5-chloro-12′-ethyl-7′-hydroxy-2,3-dihydro-15′H-spiro[indene-1,22′-[20]oxa[13]thia[1,14]diazatetracyclo[14.7.2.0^3,6.0^19,24]pentacosa [16,18,24]trien]-15′-one 13′,13′-dioxide], the IC50 turned out to be 2.04 nM. The result for `CC(C)(O)[C@@H]1CC/C=C/[C@H](O)[C@@H]2CC[C@H]2CN2C[C@@]3(CCCc4cc(Cl)ccc43)COc3ccc(cc32)C(=O)NS1(=O)=O` (single isomer, unassigned) [Example 696] reads 0.305 nM; that for `CC(C)(O)[C@@H]1CC/C=C/[C@H](O)[C@@H]2CC[C@H]2CN2C[C@@]3(CCCc4cc(Cl)ccc43)COc3ccc(cc32)C(=O)NS1(=O)=O` (single isomer, unassigned) [Example 697], 0.746 nM. The figure for `CC[C@H]1CC/C=C/[C@H](O)[C@@H]2CC[C@H]2CN2C[C@@]3(CCc4cc(Cl)ccc43)COc3ccc(cc32)C(=O)NS1(=O)=O` (single isomer, unassigned) [Example 699] is 0.649 nM; for `CC[C@H]1CC/C=C/[C@H](O)[C@@H]2CC[C@H]2CN2C[C@@]3(CCc4cc(Cl)ccc43)COc3ccc(cc32)C(=O)NS1(=O)=O` (single isomer, unassigned) [Example 700] it is 27.7 nM. Regarding `O=C1NS(=O)(=O)C[C@H](c2ccccc2)C/C=C/[C@H](O)[C@@H]2CC[C@H]2CN2C[C@@]3(CCCc4cc(Cl)ccc43)COc3ccc1cc32` (single isomer, unassigned) [Example 704], the IC50 stood at 40.5 nM. The figure for `O=C1NS(=O)(=O)C[C@H](CO)/C=C/C[C@H](O)[C@@H]2CC[C@H]2CN2C[C@@]3(CCCc4cc(Cl)ccc43)COc3ccc1cc32` (single isomer, unassigned) [Example 706] is 4.51 nM; for `O=C1NS(=O)(=O)C[C@@H](CO)/C=C/C[C@H](O)[C@@H]2CC[C@H]2CN2C[C@@]3(CCCc4cc(Cl)ccc43)COc3ccc1cc32` (single isomer, unassigned) [Example 707] it is 2.25 nM; for `O=C1NS(=O)(=O)C[C@H](CO)CCC[C@H](O)[C@@H]2CC[C@H]2CN2C[C@@]3(CCCc4cc(Cl)ccc43)COc3ccc1cc32` (single isomer, unassigned) [Example 708] it is 1.12 nM.

Take `O=C1NS(=O)(=O)[C@H](CO)CCCC[C@H](O)[C@@H]2CC[C@H]2CN2C[C@@]3(CCCc4cc(Cl)ccc43)COc3ccc1cc32` (single isomer, unassigned) [Example 712]: the IC50 amounted to 0.995 nM. The figure for `O=C1NS(=O)(=O)[C@@H](CO)CCCC[C@H](O)[C@@H]2CC[C@H]2CN2C[C@@]3(CCCc4cc(Cl)ccc43)COc3ccc1cc32` (single isomer, unassigned) [Example 713] is 1.71 nM; for `COC1C=CCC(OC)C(C)S(=O)(=O)NC(=O)c2ccc3c(c2)N(CC2CCC21)CC1(CCCc2cc(Cl)ccc21)CO3` (single isomer, unassigned) [Example 717] it is 28.6 nM.

On to `CC(C)[C@@H]1CCCC[C@H](O)[C@@H]2CC[C@H]2CN2C[C@@]3(CCCc4cc(Cl)ccc43)COc3ccc(cc32)C(=O)NS1(=O)=O` (single isomer, unassigned) [Example 752], for which the IC50 worked out at 4.39 nM. The result for `CC(C)[C@@H]1CCCC[C@@H](O)[C@@H]2CC[C@H]2CN2C[C@@]3(CCCc4cc(Cl)ccc43)COc3ccc(cc32)C(=O)NS1(=O)=O` (single isomer, unassigned) [Example 754] reads 8.93 nM; that for `C[C@H]1C/C=C/[C@H](O)[C@@H]2CC[C@H]2CN2C[C@@]3(CCCc4cc(Cl)ccc43)COc3ccc(cc32)C(=O)NS1(=O)=O` (single isomer, unassigned) [Example 759], 3.98 nM; that for `C[C@H]1CCCC(=O)[C@@H]2CC[C@H]2CN2C[C@@]3(CCCc4cc(Cl)ccc43)COc3ccc(cc32)C(=O)NS1(=O)=O` (single isomer, unassigned) [Example 760], 15.8 nM.

For `CC[C@@H]1/C=C/C[C@H](O)[C@@H]2CC[C@H]2CN2C[C@@]3(CCCc4cc(Cl)ccc43)COc3ccc(cc32)C(=O)NS1(=O)=O` (single isomer, unassigned) [Example 766], the IC50 is 6.5 nM.

Turning to `CCC1CCCC(O)C2CCC2CN2CC3(CCCc4cc(Cl)ccc43)COc3ccc(cc32)C(=O)NS1(=O)=O` (single isomer, unassigned) [Example 768], the IC50 was found to be 2.24 nM. The result for `COC[C@H]1C/C=C/[C@H](O)[C@@H]2CC[C@H]2CN2C[C@@]3(CCCc4cc(Cl)ccc43)COc3ccc(cc32)C(=O)NS1(=O)=O` (single isomer, unassigned) [Example 772] reads 5.2 nM. The result for `COC[C@@H]1C/C=C/[C@H](O)[C@@H]2CC[C@H]2CN2C[C@@]3(CCCc4cc(Cl)ccc43)COc3ccc(cc32)C(=O)NS1(=O)=O` (single isomer, unassigned) [Example 773] reads 2.35 nM; that for `COC[C@@]1(C)C/C=C/[C@H](O)[C@@H]2CC[C@H]2CN2C[C@@]3(CCCc4cc(Cl)ccc43)COc3ccc(cc32)C(=O)NS1(=O)=O` (single isomer, unassigned) [Example 774], 1.72 nM. The result for `CC(=O)N1CC[C@H](O)[C@@H]2CC[C@H]2CN2C[C@@]3(CCCc4cc(Cl)ccc43)COc3ccc(cc32)C(=O)NS(=O)(=O)CC1` (single isomer, unassigned) [Example 778] reads 6.89 nM; that for `O=C1NS(=O)(=O)CCOC[C@@H](O)C[C@H]2CC[C@H]2CN2C[C@@]3(CCCc4cc(Cl)ccc43)COc3ccc1cc32` (single isomer, unassigned) [Example 780, (3R,6R,8S,22S)-6′-chloro-8-hydroxy-3′,4′-dihydro-2′H,15H-spiro[10,20-dioxa-13-thia-1,14-diazatetracyclo[14.7.2.0^3,6.0^19,24]pentacosa-16,18,24-triene-22, 1′-naphthalen]-15-one-13, 13-dioxide or (3R,6R,8R,22S)-6′-chloro-8-hydroxy-3′,4′-dihydro-2′H,15H-spiro[10,20-dioxa-13-thia-1,14-diazatetracyclo[14.7.2.0^3,6.0^19,24]pentacosa-16,18,24-triene-22, 1′-naphthalen]-15-one-13, 13-dioxide], 4.84 nM; that for `O=C1NS(=O)(=O)CCOCCC[C@@H]2CC[C@H]2CN2C[C@@]3(CCCc4cc(Cl)ccc43)COc3ccc1cc32` (single isomer, unassigned) [Example 815], 1.26 nM. In the case of `O=C1NS(=O)(=O)CCOCCC[C@@H]2CC[C@H]2CN2C[C@@]3(CCc4cc(Cl)ccc43)COc3ccc1cc32` (single isomer, unassigned) [Example 816], the IC50 came to 4.72 nM. The figure for `O=C1NS(=O)(=O)CCC/C=C/C[C@H](O)[C@@H]2CC[C@H]2CN2C[C@@]3(CCCc4cc(Cl)ccc43)COc3ccc1cc32` (single isomer, unassigned) [Example 833, (1S,3′R,6′R,7′S,9′E)-6-chloro-7′-hydroxy-3,4-dihydro-2H,16′H-spiro[naphthalene-1,23′-[21]oxa[14]thia[1,15]diazatetracyclo[15.7.2.0^3,6.0^20,25]hexacosa[9,17,19,25]tetraen]-16′-one 14′,14′-dioxide or (1S,3′R,6′R,7′S,9′Z)-6-chloro-7′-hydroxy-3,4-dihydro-2H,16′H-spiro[naphthalene-1,23′-[21]oxa[14]thia[1,15]diazatetracyclo[15.7.2.0^3,6.0^20,25]hexacosa [9,17,19,25]tetraen]-16′-one 14′,14′-dioxide] is 5.12 nM; for `O=C1NS(=O)(=O)CC/C=C/C[C@@H](O)[C@@H]2CC[C@H]2CN2C[C@@]3(CCCc4cc(Cl)ccc43)COc3ccc1cc32` (single isomer, unassigned) [Example 844] it is 11.1 nM; for `O=C1NS(=O)(=O)CC/C=C\C[C@@H](O)[C@@H]2CC[C@H]2CN2C[C@@]3(CCCc4cc(Cl)ccc43)COc3ccc1cc32` (single isomer, unassigned) [Example 845] it is 4.32 nM. The figure for `O=C1NS(=O)(=O)CCCC[C@@H](O)[C@H](O)[C@@H]2CC[C@H]2CN2C[C@@]3(CCCc4cc(Cl)ccc43)COc3ccc1cc32` (single isomer, unassigned) [Example 853, (1S,3′R,6′R,7′R,8′R)-6-chloro-7′,8′-dihydroxy-3,4-dihydro-2H,15′H-spiro[naphthalene-1,22′-[20]oxa[13]thia[1,14]diazatetracyclo[14.7.2.0^3,6.0^19,24]pentacosa [16,18,24]trien]-15′-one 13′,13′-dioxide or (1S,3′R,6′R,7′S,8′S)-6-chloro-7′,8′-dihydroxy-3,4-dihydro-2H,15′H-spiro[naphthalene-1,22′-[20]oxa[13]thia[1,14]diazatetracyclo[14.7.2.0^3,6.0^19,24]pentacosa [16,18,24]trien]-15′-one 13′,13′-dioxide] is 11.7 nM.

(Values after patent US12091425B2 (AMGEN INC., priority 2016, dated 2024).)
